Reference: PMC11801715, “Activating PKC-ε induces HIV expression with improved tolerability” (PLOS Pathogens, 2025)
Where two headings read alike, the source gives them in different places.

Assays:
PKC δ and ε over α and β = conditions: cited from earlier work
PKC-α [1] = target: T1, PKC-α (Homo sapiens, UniProt P17252); experiment: PKC isoform translocation in A549-tGFP cells; assay type: cell-based; parameters: host or cells: A549
Procedure: (§1) A description of this effort is reported elsewhere.
(§2) Cellular translocation of PKC isoforms upon activation was determined in 8 A549 cell lines, each expressing a single PKC isoform fused to tGFP (PhenoVista Biosciences). Cells were plated in 384-well plates (80 μL/well) at 10^5 cells/mL in RPMI with 10% FBS and rested overnight. PKC agonist(s) were serially diluted at 1:3 steps in DMSO and added to the cells. After 60 minutes in an incubator at 37 °C, 5% CO2, cells were stained with Hoechst-33342 and fixed with 2% paraformaldehyde for 30 minutes at 4 °C. Cells were then stained with wheat germ agglutinin conjugated to AlexaFluor647 (WGA-647) for 10 minutes at 4 °C, washed to remove excess dye and imaged with Cellomics Array Scan (Thermo Fisher) at room temperature (RT). Images were analyzed using Cellomics automated image analysis algorithm. Plasma membrane translocation was quantified using the ratio between the average fluorescence in the areas at the cell edge defined by WGA-647 and the cytoplasm region.

PKC-δ = PKC-δ (Homo sapiens, UniProt Q05655); experiment: PKC isoform translocation in A549-tGFP cells; assay type: cell-based; parameters: host or cells: A549
PKC-δ, sequence (Q05655 whole entry, canonical isoform): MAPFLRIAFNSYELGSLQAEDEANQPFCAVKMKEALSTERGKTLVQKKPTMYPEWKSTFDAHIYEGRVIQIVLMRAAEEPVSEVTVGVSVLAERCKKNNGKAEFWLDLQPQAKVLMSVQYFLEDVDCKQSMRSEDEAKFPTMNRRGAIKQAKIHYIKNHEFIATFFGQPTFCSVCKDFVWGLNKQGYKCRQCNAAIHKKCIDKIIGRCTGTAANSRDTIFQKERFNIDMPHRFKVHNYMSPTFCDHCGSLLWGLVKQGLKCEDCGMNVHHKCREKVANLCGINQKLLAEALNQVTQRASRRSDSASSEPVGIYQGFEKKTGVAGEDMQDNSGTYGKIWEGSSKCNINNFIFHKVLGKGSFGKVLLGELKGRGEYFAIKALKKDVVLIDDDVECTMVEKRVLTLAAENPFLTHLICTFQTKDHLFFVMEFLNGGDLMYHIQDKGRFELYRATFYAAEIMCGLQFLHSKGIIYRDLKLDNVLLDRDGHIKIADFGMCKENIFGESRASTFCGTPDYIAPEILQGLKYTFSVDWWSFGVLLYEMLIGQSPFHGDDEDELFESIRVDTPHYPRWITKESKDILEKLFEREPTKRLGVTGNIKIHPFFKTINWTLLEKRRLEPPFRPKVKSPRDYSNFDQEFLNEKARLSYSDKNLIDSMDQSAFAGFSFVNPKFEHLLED
Procedure: as §1, §2

PKC-η = PKC-η (Homo sapiens, UniProt P24723); experiment: PKC isoform translocation in A549-tGFP cells; assay type: cell-based; parameters: host or cells: A549; conditions: A549-tGFP cells, 60 minutes
PKC-η, sequence (P24723 whole entry, canonical isoform): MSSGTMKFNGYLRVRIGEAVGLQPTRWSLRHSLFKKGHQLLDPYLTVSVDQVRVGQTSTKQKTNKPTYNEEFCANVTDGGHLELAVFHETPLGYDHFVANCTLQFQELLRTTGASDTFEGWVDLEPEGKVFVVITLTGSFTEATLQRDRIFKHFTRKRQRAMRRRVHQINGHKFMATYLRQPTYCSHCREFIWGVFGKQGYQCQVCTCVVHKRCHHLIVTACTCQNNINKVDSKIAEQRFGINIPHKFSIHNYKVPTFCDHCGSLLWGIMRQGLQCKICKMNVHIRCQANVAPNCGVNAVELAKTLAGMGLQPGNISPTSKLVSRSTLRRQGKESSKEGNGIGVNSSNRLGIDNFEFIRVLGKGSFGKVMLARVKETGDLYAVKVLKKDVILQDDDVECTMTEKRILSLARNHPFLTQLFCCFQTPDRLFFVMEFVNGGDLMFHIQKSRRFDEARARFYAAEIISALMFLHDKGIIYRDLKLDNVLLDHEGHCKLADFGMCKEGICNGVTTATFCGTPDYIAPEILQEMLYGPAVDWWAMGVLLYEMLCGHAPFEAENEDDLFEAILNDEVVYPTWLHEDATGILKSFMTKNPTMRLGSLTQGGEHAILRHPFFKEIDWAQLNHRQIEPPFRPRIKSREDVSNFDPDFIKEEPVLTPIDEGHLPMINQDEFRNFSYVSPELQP
Procedure: as §1, §2

PKC-θ = PKC-θ (Homo sapiens, UniProt Q04759); experiment: PKC isoform translocation in A549-tGFP cells; assay type: cell-based; parameters: host or cells: A549; conditions: A549-tGFP cells, 60 minutes
PKC-θ, sequence (Q04759 whole entry, canonical isoform): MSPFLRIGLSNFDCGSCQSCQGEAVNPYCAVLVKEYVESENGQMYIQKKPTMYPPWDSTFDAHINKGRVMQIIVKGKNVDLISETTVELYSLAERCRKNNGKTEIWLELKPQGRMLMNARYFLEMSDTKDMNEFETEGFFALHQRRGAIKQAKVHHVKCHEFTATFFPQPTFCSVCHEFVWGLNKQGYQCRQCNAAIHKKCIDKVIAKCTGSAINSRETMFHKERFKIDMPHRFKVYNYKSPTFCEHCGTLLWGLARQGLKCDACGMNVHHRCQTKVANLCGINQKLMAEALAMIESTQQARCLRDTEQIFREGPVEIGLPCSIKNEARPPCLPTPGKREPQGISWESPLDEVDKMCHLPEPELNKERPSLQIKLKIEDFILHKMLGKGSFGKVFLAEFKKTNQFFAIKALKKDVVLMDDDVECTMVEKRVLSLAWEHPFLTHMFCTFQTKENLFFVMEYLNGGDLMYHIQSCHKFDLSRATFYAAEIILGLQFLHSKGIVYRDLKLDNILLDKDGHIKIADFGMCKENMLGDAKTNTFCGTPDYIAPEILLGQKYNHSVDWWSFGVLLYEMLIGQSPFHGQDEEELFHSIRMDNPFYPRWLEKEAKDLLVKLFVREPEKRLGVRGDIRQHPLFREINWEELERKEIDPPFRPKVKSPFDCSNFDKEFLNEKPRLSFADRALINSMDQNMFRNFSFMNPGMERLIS
Procedure: as §1, §2

PKC-β1 [2] = target: T2, PKC-β1 (Homo sapiens, UniProt P05771); experiment: PKC isoform translocation in A549-tGFP cells; assay type: cell-based; parameters: host or cells: A549; conditions: 60 minutes
T2 sequence (P05771 whole entry, canonical isoform): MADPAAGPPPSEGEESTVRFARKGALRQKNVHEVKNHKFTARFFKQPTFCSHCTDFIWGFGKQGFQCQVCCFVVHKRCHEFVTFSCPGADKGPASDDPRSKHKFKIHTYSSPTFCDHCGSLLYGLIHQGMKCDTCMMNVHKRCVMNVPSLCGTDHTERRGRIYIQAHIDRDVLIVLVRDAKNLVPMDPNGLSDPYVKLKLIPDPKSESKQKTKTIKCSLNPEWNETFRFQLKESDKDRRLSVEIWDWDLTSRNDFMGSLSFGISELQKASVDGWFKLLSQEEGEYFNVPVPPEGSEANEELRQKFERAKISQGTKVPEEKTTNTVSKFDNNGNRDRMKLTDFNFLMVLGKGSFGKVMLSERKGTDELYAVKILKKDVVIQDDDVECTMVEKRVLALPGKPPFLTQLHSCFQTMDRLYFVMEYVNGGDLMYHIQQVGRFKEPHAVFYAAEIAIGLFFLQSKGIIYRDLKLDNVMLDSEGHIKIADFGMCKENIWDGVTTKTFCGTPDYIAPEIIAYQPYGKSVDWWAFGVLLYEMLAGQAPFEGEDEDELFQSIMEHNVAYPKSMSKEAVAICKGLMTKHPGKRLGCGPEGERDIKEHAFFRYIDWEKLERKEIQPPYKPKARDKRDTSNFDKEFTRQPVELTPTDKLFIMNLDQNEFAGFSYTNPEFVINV
Procedure: (§3) Using these findings we embarked on new designs for DAG-lactones with additional substituents from the ester moiety in combination with a few olefin substituents. A description of this effort is reported elsewhere.
as §2

PKC-β2 [3] = target: T3, PKC-β2 (Homo sapiens, UniProt P05771); experiment: PKC isoform translocation in A549-tGFP cells; assay type: cell-based; parameters: host or cells: A549; conditions: 60 minutes
T3 sequence (P05771 1-673 isoform P05771-2): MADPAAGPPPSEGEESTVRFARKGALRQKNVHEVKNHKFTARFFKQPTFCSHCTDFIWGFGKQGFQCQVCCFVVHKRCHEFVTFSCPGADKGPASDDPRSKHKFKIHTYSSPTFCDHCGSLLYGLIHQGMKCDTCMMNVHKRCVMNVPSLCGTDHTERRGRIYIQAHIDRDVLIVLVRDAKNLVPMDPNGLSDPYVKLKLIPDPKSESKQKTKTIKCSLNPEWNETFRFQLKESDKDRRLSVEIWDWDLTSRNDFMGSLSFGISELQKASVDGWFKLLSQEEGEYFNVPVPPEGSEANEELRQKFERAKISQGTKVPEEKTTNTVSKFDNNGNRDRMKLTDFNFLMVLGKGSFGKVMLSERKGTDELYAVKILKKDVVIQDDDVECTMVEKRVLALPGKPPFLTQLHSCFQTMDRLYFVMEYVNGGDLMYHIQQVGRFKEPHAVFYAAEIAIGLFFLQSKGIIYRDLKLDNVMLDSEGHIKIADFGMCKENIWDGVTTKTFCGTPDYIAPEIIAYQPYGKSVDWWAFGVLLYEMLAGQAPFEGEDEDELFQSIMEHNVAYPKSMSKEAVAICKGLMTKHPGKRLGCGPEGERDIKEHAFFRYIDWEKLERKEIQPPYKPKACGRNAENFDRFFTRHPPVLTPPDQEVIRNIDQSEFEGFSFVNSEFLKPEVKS
Procedure: as §3, §2

PKC-γ = PKC-γ (Homo sapiens, UniProt P05129); experiment: PKC isoform translocation in A549-tGFP cells; assay type: cell-based; parameters: host or cells: A549; conditions: 60 minutes
Procedure: as §3, §2

PKC-ε = target: T4, PKC-ε (Homo sapiens, UniProt Q02156); experiment: PKC isoform translocation in A549-tGFP cells; assay type: cell-based; parameters: host or cells: A549; conditions: A549-tGFP cells, 60 minutes
T4 sequence (Q02156 1-737): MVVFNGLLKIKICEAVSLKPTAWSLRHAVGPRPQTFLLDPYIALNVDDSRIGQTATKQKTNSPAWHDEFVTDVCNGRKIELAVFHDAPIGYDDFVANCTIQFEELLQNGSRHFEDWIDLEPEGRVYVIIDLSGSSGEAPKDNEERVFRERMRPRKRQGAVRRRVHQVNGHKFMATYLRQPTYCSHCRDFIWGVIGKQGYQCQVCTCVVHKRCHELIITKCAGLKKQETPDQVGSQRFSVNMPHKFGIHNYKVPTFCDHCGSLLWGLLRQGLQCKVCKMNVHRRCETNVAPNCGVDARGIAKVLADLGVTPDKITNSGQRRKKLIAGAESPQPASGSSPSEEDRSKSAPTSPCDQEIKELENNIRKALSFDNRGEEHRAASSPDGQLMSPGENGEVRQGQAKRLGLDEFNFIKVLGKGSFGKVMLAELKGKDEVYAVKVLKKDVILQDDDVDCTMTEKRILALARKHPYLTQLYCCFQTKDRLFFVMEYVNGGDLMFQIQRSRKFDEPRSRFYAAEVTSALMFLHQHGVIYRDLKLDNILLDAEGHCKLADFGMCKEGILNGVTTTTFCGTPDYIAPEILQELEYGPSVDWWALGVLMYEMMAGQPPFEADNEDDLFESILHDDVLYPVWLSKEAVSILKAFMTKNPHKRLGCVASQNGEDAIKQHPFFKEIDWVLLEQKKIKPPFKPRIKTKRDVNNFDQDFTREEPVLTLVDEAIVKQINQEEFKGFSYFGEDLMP
Procedure: as §3, §2

[4] = test system: platelets (CD62P+) and CD4+ T cells (CD69+) in whole blood; experiment: In vitro whole blood platelet and CD4+ T-cell activation assay; assay type: cell-based, human; conditions: whole blood from healthy donors; platelets to CD4+ T cells
Procedure: We developed a novel human whole blood assay to determine whether other PKC agonists also activate platelets at the same concentrations that are required to activate CD4^+ T cells. Platelet activation was assessed by CD62P (P-selectin), which traffics to the cell surface upon activation and α-granule release. CD4^+ T-cell activation was assessed by CD69 upregulation (Fig 7A).
Whole blood was drawn into sodium citrate tubes using a 21-gauge needle. To prevent potential interference from tissue thromboplastin released during venipuncture, which could affect the accuracy of coagulation testing, the first 2 mL of blood drawn was discarded. PKC agonist molecules were dispensed in a dilution series into 80 μL of blood per well in a flat-bottom 96-well plate and mixed gently. Care was taken not to introduce any mechanical stress-related activation of platelets. […] The remaining 72 μL of blood in the first plate was incubated for 1 additional hour and stained with anti-human CD3 (UCHT1), CD4 (SK3), and CD69 (FN50) (30 minutes in the dark). Red blood cell lysis and fixing was done using BD lyse/fix solution. Stained cells were acquired on BD LSR Fortessa II after washing. […] EC50 values for platelet and CD4 T-cell activation for each agonist was obtained by nonlinear regression curve fit using GraphPad Prism version 9.3.0.

[5] = cited from earlier work
[6] = test system: latent HIV in total CD4+ T cells; experiment: microbe, parasite or virus in culture; assay type: cell-based, HIV-1; conditions: 5 μM
Procedure: Peripheral blood mononuclear cells and CD4^+ T cells used for evaluating PKC agonist and inhibitor molecules were isolated from leukopaks of selected participants as described previously. Isolated CD4^+ T cells (5×10^6 cells/well) were added to 24-well tissue culture plates in 2.5 mL of RPMI medium containing 100 nM each of elvitegravir and efavirenz. Cells were stimulated with DMSO (vehicle control) or the indicated concentrations of PKC agonist molecules. Cells were pretreated with PKC isoform inhibitors (Selleck Chemicals) for 1 hour before addition of PKC agonist at indicated concentrations and maintained at 37 °C, 5% CO2 for 3 days. Cell supernatants from each well were analyzed using the Cobas […] system for quantification of HIV-1 RNA using the HIV-1 test v2.0 kit (Roche Diagnostics).

PKC-α [7] = target: T1, PKC-α; experiment: Z'-LYTE kinase activity assay; assay type: biochemical; conditions: ATP at Kmapp, 2 μM peptide substrate; read-out: IC50 for classical PKC isoforms, PKC-α
Source text: (§4) In this assay, phosphorylation of a synthetic FRET-peptide substrate protects the peptide from cleavage by the development reagent and prevents disruption of the FRET signal.

PKC-β1 [8] = target: T2, PKC-β1; experiment: Z'-LYTE kinase activity assay; assay type: biochemical; conditions: ATP at Kmapp, 2 μM peptide substrate; read-out: IC50 for classical PKC isoforms, PKC-β1
Source text: as §4

PKC-β2 [9] = target: T3, PKC-β2; experiment: Z'-LYTE kinase activity assay; assay type: biochemical; conditions: ATP at Kmapp, 2 μM peptide substrate; read-out: IC50 for classical PKC isoforms, PKC-β2
Source text: as §4

[10] = test system: classical and novel PKC isoforms; experiment: Estimated PKC inhibition in cell culture from Z'-LYTE IC50 and free fraction; assay type: biochemical; conditions: 25 µM, 34% free in cell culture media
Source text: as §4

[11] = Free fraction in cell culture media; assay type: in vitro ADME

CC(C)CC(C/C=C1\CC(CO)(COC(=O)C(C)(C)C)OC1=O)CC(C)C (stereo not shown) [AJH-863, reference compound]
potency as PKC agonist (PKC δ and ε over α and β): low nanomolar potency | selectivity for δ and ε over α and β (PKC δ and ε over α and β): approximately 10 fold | EC50 (PKC-α [1]): > 50000 nM | EC50 (PKC-δ; EC50 for PKC-δ translocation): 2320 nM | EC50 (PKC-η): 1890 nM | EC50 (PKC-θ): 1200 nM | EC50 (PKC-β1 [2]): 1300 nM | EC50 (PKC-β2 [3]): 1060 nM | EC50 (PKC-γ): 19400 nM | EC50 (PKC-ε): 505 nM

CCC/C=C/C=C/C(=O)O[C@H]1/C(=C/C(=O)OC)C[C@H]2C[C@H]([C@@H](C)O)OC(=O)C[C@H](O)C[C@@H]3C[C@H](OC(C)=O)C(C)(C)[C@](O)(C[C@@H]4C/C(=C/C(=O)OC)C[C@H](/C=C/C(C)(C)[C@]1(O)O2)O4)O3 [Bryostatin, reference compound]
CD62P EC50/CD69 EC50 ratio Geomean [4]: 0.9 | dose-limiting toxicity [5]: myalgia

CC(C)=C1CC(CO)(COC(=O)c2ccc(C#Cc3ccc(C)cc3)cc2)OC1=O (stereo not shown) [Comin compound 2]
HIV RNA Fold∆ over DMSO, Geomean ([6]; agonist alone): 13 fold | HIV RNA Fold∆ over DMSO, Geomean ([6]; +5 μM Gö-6850 Pan-PKC Inhibitor): 1.6 fold | HIV RNA Fold∆ over DMSO, Geomean ([6]; +25 μM Gö-6976 Classical-PKC Inhibitor): 15 fold | EC50 (PKC-α [1]; A549-tGFP cells, 60 minutes, read-out: EC50 for PKC-α translocation): > 50000 nM | EC50 (PKC-δ; A549-tGFP cells, 60 minutes, read-out: EC50 for PKC-δ translocation): 4040 nM | EC50 (PKC-η): 1190 nM | EC50 (PKC-θ): 792 nM | EC50 (PKC-β1 [2]): 966 nM | EC50 (PKC-β2 [3]): 6650 nM | EC50 (PKC-ε): 783 nM

Cn1c2ccccc2c2c3c(c4c5ccccc5n(CCC#N)c4c21)CNC3=O [Gӧ-6976]
IC50 (PKC-α [7]): 101 nM | IC50 (PKC-β1 [8]): 469 nM | IC50 (PKC-β2 [9]): 182 nM | estimated effect on novel PKC isoforms [10]: without impacting novel PKC isoforms | estimated inhibition of classical isoform activity [10]: 75%–95% | free in cell culture media [11]: 34%
